Data from US20210238224A1, “METHOD OF CONSTRUCTING PROTAC BY USING DOUBLE TARGETS” (THE FIRST AFFILIATED HOSPITAL OF SUN YAT-SEN UNIVERSITY, priority 2018, published 2021).

Target: T1, Smad3 (Rattus norvegicus, UniProt P84025)
T1 construct: endogenous in cells; host or cells: NRK49F rat kidney fibroblasts, stimulated with TGF-β1
Assay: Western blot of Smad3 degradation in TGF-β1-stimulated rat kidney fibroblasts
Type: cell-based
Settings: NRK49F cells, 48 hours, FIGS. 6(A), 6(B)
Description: Rat kidney fibroblasts (NRK49F cell line) are cultured in vitro, passage 1:3 or 1:4 to six-well plates before cell fusion, and are divided into a TGF-β1 control group (TGF-β1 10 ng/ml), a PROTAC-PEG action group (TGF-β1 10 ng/ml+PROTAC-PEG of different concentrations: 1, 5, 25, 125 nM), and a PROTAC-butanedioic acid action group (TGF-β1 10 ng/ml+PROTAC-butanedioic acid of different concentrations: 1, 5, 25, 125 nM); the cells are lysed after 48 hours of culture and are used for Western blot.

T1 sequence (P84025 whole entry): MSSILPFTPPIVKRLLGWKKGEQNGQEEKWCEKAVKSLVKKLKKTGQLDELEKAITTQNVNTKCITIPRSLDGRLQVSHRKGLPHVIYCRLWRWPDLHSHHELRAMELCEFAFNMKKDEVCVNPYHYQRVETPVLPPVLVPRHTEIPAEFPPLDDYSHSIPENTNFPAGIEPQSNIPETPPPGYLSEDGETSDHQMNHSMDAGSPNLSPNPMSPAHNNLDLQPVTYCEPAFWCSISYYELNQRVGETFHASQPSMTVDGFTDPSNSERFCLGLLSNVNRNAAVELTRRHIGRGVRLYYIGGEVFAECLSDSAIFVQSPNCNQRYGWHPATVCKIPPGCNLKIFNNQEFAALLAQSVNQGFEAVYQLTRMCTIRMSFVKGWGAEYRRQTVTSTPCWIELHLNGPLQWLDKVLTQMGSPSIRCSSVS

C[C@@H](NC(=O)[C@@H]1C[C@@H](O)CN1C(=O)[C@@H](NC(=O)CCC(=O)NC(c1cccnc1)c1cc2ccccc2o1)C(C)(C)C)c1ccc(-c2cc(N)cs2)cc1 (stereo partly drawn) [PROTAC-butanedioic acid]
degradation of target protein Smad3 (Western blot) (TGF-β1 10 ng/ml + PROTAC 1, 5, 25, 125 nM): degrades the target protein Smad3 in a concentration-dependent manner
Smad3-degrading activity compared with PROTAC-PEG (TGF-β1 10 ng/ml): significantly higher than that of PROTAC-PEG
effective concentration for Smad3 degradation (TGF-β1 10 ng/ml): 25 nM
